{"source": "patent US20200085789A1", "about": "“USE OF A PROTEASOME INHIBITOR FOR THE TREATMENT OF CENTRAL NERVOUS SYSTEM (CNS) CANCERS” (Celgene International II Sàrl, priority 2017, published 2020)", "key": {"[1]": {"tested_on": "WHO Grade IV malignant glioma", "assay": "Tumor response by RANO criteria, MRZ ± BEV in recurrent grade IV malignant glioma patients", "assay_type": "in vivo, human", "conditions": "for Best Response CR (0), patients / Best Response PD (19), patients / Best Response PR (1), patients / Best Response SD (8), patients: Monotherapy ITT; for SPD: Monotherapy", "procedure": "(§1) Tumor response was measured every other cycle by RANO criteria.\n(§2) The drugs were infused on 28-Day Cycles. Tumor response is assessed every other cycle by RANO criteria.\nAssessment will include MRI scans at the end of every even numbered cycle (±7 days) using RANO 2010 criteria for assessment."}, "[2]": {"tested_on": "WHO Grade IV malignant glioma", "assay": "Progression free survival (PFS) and overall survival (OS), MRZ ± BEV in recurrent grade IV malignant glioma patients", "assay_type": "in vivo, human", "procedure": "as §1, §2\nTumor response, including PD activity, progression-free survival (PFS), and overall survival (OS) will be assessed. Tumor response will be assessed by the Investigators using RANO 2010 criteria. […] Endpoints of response based on tumor assessments will be calculated for subjects who received at least 3 doses of MRZ and had at least 1 post-dose tumor evaluation.\nTumor response including PD, progression-free survival (PFS), and overall survival (OS) will be assessed by the Investigators using RANO 2010 criteria."}, "[3]": {"tested_on": "proteasome (CT-L, T-L and C-L activity)", "assay": "Blood proteasome inhibition (CT-L, T-L, C-L activity in packed whole blood and PBMC lysates)", "assay_type": "in vivo, human", "conditions": "for % C-L inhibition / % CT-L inhibition / % T-L inhibition: PWB, post-Marizomib infusion (peak effect)", "from_the_text": "The drugs were infused on 28-Day Cycles.\nChange in proteasome activities in packed whole blood (PWB) lysates and peripheral blood mononuclear cell (PBMC) lysates, comparing pre-drug and post drug levels on Days 1, 8, and 15 of Cycle 1; Days 1 and 15 of each Cycle thereafter; and at the End-of Treatment Visit.\nThe laboratory correlates include assessment of the percentage inhibition of proteasome function (evaluated by measurement of CT-L, T-L and C-L activity in blood isolates such as whole blood and PBMC lysates.\nPD analysis will include change in proteasome activities (whole blood lysates and PBMC lysates) by comparing pre-drug and post drug levels on Days 1, 8, and 15 (i.e., for each dose) of Cycle 1 and Days 1 and 15 (i.e., for the first and last doses) of each cycle thereafter."}, "[4]": {"tested_on": "human glioblastoma (GBM) cell lines", "conditions": "either of two GBM lines; cited from earlier work"}, "[5]": {"assay": "Marizomib blood pharmacokinetics (Part 1 Phase 1)", "conditions": "for AUC(0-t) / Cmax / Tmax / Vd / half-life: human, whole blood, intravenous", "procedure": "Blood samples will be taken for peak and trough measurements, pre-dose and immediately prior to (end of infusion) EOI, on Cycle 1 Day 1. On Cycle 1 Day 15 full PK sampling will be done: pre-dose, immediately prior to EOI and then 2, 5, 15, 30, 45, 60, 90 and 120 minutes post infusion. The following PK parameters will be estimated by non-compartmental analysis:\nNon-compartmental analyses will be performed. […] Blood concentrations and computed PK parameters for MRZ will be listed and summarized by cohort (mean, geometric mean, standard deviation, coefficient of variation, minimum, maximum and number of observations).\nBlood should be drawn from the contralateral arm to the infusion site and using an indwelling catheter to avoid multiple needle sticks is recommended. Sample collection time should be recorded on the tube label and Case Report Form (CRF) as day: hour: minute. Nominal time of blood collection are given as “time points”; it is critical that an accurately collected actual time of the sample is written on the CRF and on the blood tubes (date entered as dd:mm:yyyy; time entered using a 24-hour clock, hh:mm). For MRZ samples will be obtained before treatment and just prior to end of infusion on Cycle 1 Day 1. On Cycle 1 Day 15, MRZ blood samples will be obtained before treatment, just prior to end of infusion, and 2, 5, 15, 30, 45, 60, 90, and 120 minutes after the infusion. Every effort should be made to collect samples at the prescribed times, but deviations up to 10% of the time point are allowed. Additional samples may be collected if the subject experiences a potentially drug-related SAE. After blood collection, neutralizing solution must be added. Use Sponsor-provided PK kits. Process, store and ship samples per instructions in Study Reference Manual.\nNon-compartmental analyses will be performed."}, "[6]": {"conditions": "Phase 2 monotherapy, of 30 patients"}}}
{"smiles": "C[C@@]12OC(=O)[C@]1([C@@H](O)[C@@H]1C=CCCC1)NC(=O)[C@@H]2CCCl", "note": "[MRZ, marizomib]", "values": [{"measurement": "Best Response CR (0), patients", "setting": "[1]; Methylated N = 7", "value": 0}, {"measurement": "Best Response PD (19), patients", "setting": "[1]; Methylated N = 7", "value": 4}, {"measurement": "Best Response PR (1), patients", "setting": "[1]; Methylated N = 7", "value": 0}, {"measurement": "Best Response SD (8), patients", "setting": "[1]; Methylated N = 7", "value": 3}, {"measurement": "Best Response CR (0), patients", "setting": "[1]; Unknown N = 5", "value": 0}, {"measurement": "Best Response PD (19), patients", "setting": "[1]; Unknown N = 5", "value": 3}, {"measurement": "Best Response PR (1), patients", "setting": "[1]; Unknown N = 5", "value": 0}, {"measurement": "Best Response SD (8), patients", "setting": "[1]; Unknown N = 5", "value": 1}, {"measurement": "Best Response CR (0), patients", "setting": "[1]; Unmethylated N = 18", "value": 0}, {"measurement": "Best Response PD (19), patients", "setting": "[1]; Unmethylated N = 18", "value": 12}, {"measurement": "Best Response PR (1), patients", "setting": "[1]; Unmethylated N = 18", "value": 1}, {"measurement": "Best Response SD (8), patients", "setting": "[1]; Unmethylated N = 18", "value": 4}, {"measurement": "SPD", "setting": "[1]; Pt 0511, Screening SPD 703.47", "value": 231.3}, {"measurement": "SPD", "setting": "[1]; Pt 0515, Screening SPD 199.6", "value": 259.5}, {"measurement": "SPD", "setting": "[1]; Pt 0521, Screening SPD 836.44", "value": 832.82}, {"measurement": "overall response rate", "setting": "[1]; Phase 2 monotherapy 0.8 mg/m^2, 30 patients", "value": 3, "unit": "%"}, {"measurement": "partial response, patients", "setting": "[1]; [6]", "value": 1}, {"measurement": "progressive disease, patients", "setting": "[1]; [6]", "value": 19}, {"measurement": "disease course in most patients", "setting": "[1]; marizomib alone", "value": "rapid progression"}, {"measurement": "PFS Median", "setting": "[2]; All Patients", "value": 1.8}, {"measurement": "6 mo Overall Survival", "setting": "[2]; All Pts", "value": 64, "unit": "%"}, {"measurement": "9 mo Overall Survival", "setting": "[2]; All Pts", "value": 64, "unit": "%"}, {"measurement": "6 mo Overall Survival", "setting": "[2]; Methylated MGMT Promoter", "value": 83, "unit": "%"}, {"measurement": "9 mo Overall Survival", "setting": "[2]; Methylated MGMT Promoter", "value": 83, "unit": "%"}, {"measurement": "PFS Median", "setting": "[2]; Methylated MGMT Promoter", "value": 1.7}, {"measurement": "OS 6 mo", "setting": "[2]; Monotherapy, Methylated (7)", "value": 83, "unit": "%"}, {"measurement": "OS 9 mo", "setting": "[2]; Monotherapy, Methylated (7)", "value": 83, "unit": "%"}, {"measurement": "OS Median", "setting": "[2]; Monotherapy, Methylated (7)", "value": "Undefined"}, {"measurement": "PFS 3 mo", "setting": "[2]; Monotherapy, Methylated (7)", "value": 40, "unit": "%"}, {"measurement": "PFS Median", "setting": "[2]; Monotherapy, Methylated (7)", "value": 1.7, "unit": "months"}, {"measurement": "OS 6 mo", "setting": "[2]; Monotherapy, Unmethylated (18)", "value": 65, "unit": "%"}, {"measurement": "OS 9 mo", "setting": "[2]; Monotherapy, Unmethylated (18)", "value": 65, "unit": "%"}, {"measurement": "OS Median", "setting": "[2]; Monotherapy, Unmethylated (18)", "value": "Undefined"}, {"measurement": "PFS 3 mo", "setting": "[2]; Monotherapy, Unmethylated (18)", "value": 20, "unit": "%"}, {"measurement": "PFS Median", "setting": "[2]; Monotherapy, Unmethylated (18)", "value": 1.9, "unit": "months"}, {"measurement": "median overall survival", "setting": "[2]; Part II monotherapy, 16 events, median follow-up 9.2 months", "value": 11.4, "unit": "months"}, {"measurement": "OS 6 mo %", "setting": "[2]; Part II, N = 30, 14 censored", "value": 59, "unit": "%"}, {"measurement": "OS 9 mo %", "setting": "[2]; Part II, N = 30, 14 censored", "value": 54, "unit": "%"}, {"measurement": "OS 12 mo %", "setting": "[2]; Part II, N = 30, 14 censored", "value": 17, "unit": "%"}, {"measurement": "6 mo Overall Survival", "setting": "[2]; Unmethylated MGMT Promoter", "value": 65, "unit": "%"}, {"measurement": "9 mo Overall Survival", "setting": "[2]; Unmethylated MGMT Promoter", "value": 65, "unit": "%"}, {"measurement": "PFS Median", "setting": "[2]; Unmethylated MGMT Promoter", "value": 1.9}, {"measurement": "% C-L inhibition", "setting": "[3]; 0.7 mg/m^2", "value": "50.4 ± 9.1 (3) %"}, {"measurement": "% CT-L inhibition", "setting": "[3]; 0.7 mg/m^2", "value": "100 ± 0 (3) %"}, {"measurement": "% T-L inhibition", "setting": "[3]; 0.7 mg/m^2", "value": "77.3 ± 10.5 (3) %"}, {"measurement": "% C-L inhibition", "setting": "[3]; 0.8 mg/m^2", "value": "51.9 ± 8.3 (3) %"}, {"measurement": "% CT-L inhibition", "setting": "[3]; 0.8 mg/m^2", "value": "100 ± 0 (3) %"}, {"measurement": "% T-L inhibition", "setting": "[3]; 0.8 mg/m^2", "value": "69.3 ± 7.2 (3) %"}, {"measurement": "Proteasome inhibition on chymotrypsin-like (CT-L) domains", "setting": "[3]; cohorts 1 and 2", "value": "maximal"}, {"measurement": "trypsin-like (T-L) and caspase-like (C-L) activity", "setting": "[3]; cohorts 1 vs 2", "value": "Dose-dependent inhibition"}, {"measurement": "decrease of matrix invasion", "setting": "[4]", "value": "approximately 90%"}, {"measurement": "CLobs", "setting": "[5]; MRZ 0.7 mg/m^2, C1D8", "value": "272 ± 166 (3) L/hr"}, {"measurement": "CLobs", "setting": "[5]; MRZ 0.8 mg/m^2, C1D8", "value": "304 ± 85.0 (3) L/hr"}, {"measurement": "pharmacokinetic parameters", "setting": "[5]; co-administration with bevacizumab", "value": "consistent with published parameters and not affected by co-administration"}, {"measurement": "AUC(0-t)", "setting": "[5]; 0.7 mg/m2", "value": 3.22, "unit": "ng·h/mL"}, {"measurement": "Cmax", "setting": "[5]; 0.7 mg/m2", "value": "64.9 ± 1.73", "unit": "ng/mL"}, {"measurement": "Tmax", "setting": "[5]; 0.7 mg/m2", "value": 21.3, "unit": "min"}, {"measurement": "Vd", "setting": "[5]; 0.7 mg/m2", "value": "48.3 ± 16.1", "unit": "L"}, {"measurement": "half-life", "setting": "[5]; 0.7 mg/m2", "value": "16 ± 8.08", "unit": "min"}, {"measurement": "AUC(0-t)", "setting": "[5]; 0.8 mg/m2", "value": 6.53, "unit": "ng·h/mL"}, {"measurement": "Cmax", "setting": "[5]; 0.8 mg/m2", "value": "26.5 ± 7.92", "unit": "ng/mL"}, {"measurement": "Tmax", "setting": "[5]; 0.8 mg/m2", "value": 8, "unit": "min"}, {"measurement": "Vd", "setting": "[5]; 0.8 mg/m2", "value": "55 ± 19.7", "unit": "L"}, {"measurement": "half-life", "setting": "[5]; 0.8 mg/m2", "value": "7.27 ± 0.423", "unit": "min"}, {"measurement": "Tmax", "setting": "[5]; […]2", "value": 15.5, "unit": "min"}, {"measurement": "Vd", "setting": "[5]; […]2", "value": "54.4 ± 10.6", "unit": "L"}, {"measurement": "half-life", "setting": "[5]; […]2", "value": "8.2 ± 0.8", "unit": "min"}]}
